Source: patent publication US9062077B2, “Benzopyranobenzothiazinones and their use as fungicides, antibiotics and antitumor agents” (Leibniz-Institut fuer Naturstoff-Forschung und …, priority 2011, dated 2015)

Assays:
Type in all cases: cell-based
HUVEC = assay: antiproliferative assay, HUVEC; details: Homo sapiens, read-out: GI50, inhibition of proliferation of HUVEC
Experimental: (§1) HeLa cells were used for the cytotoxic assay, HUVEC and K-562 cells were taken for the antiproliferative assay. The assays were conducted with phaeofungin C as described previously (Krauth et al., Bioorg. Med. Chem. 2010, 18, 1816-1821; Abdou et al., Phytochemistry 2010, 71, 110-116). Dose-response curves and IC50 values were then plotted and estimated, respectively.

[1] = system: K-562 human leukemia cell lines; assay: antiproliferative assay, K-562; details: K562, read-out: GI50, inhibition of proliferation of K-562 human leukemia cell lines
Experimental: as §1

[2] = cytotoxic assay, HeLa cells; details: human, read-out: IC50, cytotoxic effects against HeLa cells
Experimental: as §1

SMILES: Cc1cc(O)c(O)c(Oc2cc(C)c3c4c(c(=O)oc3c2O)Nc2c(O)cc(C)cc2S4)c1 [Phaeofungin C]
- GI50 (HUVEC): 7.5 µM
- GI50 [1]: 2.4 µM
- IC50 [2]: 10 µM
